Data published in US6387907B1, “Use of serotonin agonists to alleviate disordered breathing episodes in a mammal” (The Trustees of the University of Pennsylvania, priority 1997, dated 2002).

Experiments:
English bulldogs [1] = experiment: Upper airway dilator muscle (GH, SH) EMG activity during wakefulness after i.v. serotonin antagonist; type: in vivo, English bulldog; settings: mean±SE; for GH peak amplitude, mean: four dogs, baseline 11.86±2.17; for SH amplitude: baseline 14.41±3.93
Text: Following the baseline sleep study to document sleep-disordered breathing, each dog underwent a surgical procedure for the implantation of recording electrodes. For this procedure, dogs were premedicated with 5 to 10 micrograms per kilogram body weight atropine sulfate intramuscularly. In the cases of two bulldogs experiencing severe sleep-disordered breathing, intubation and general anesthesia were thought to pose a significant risk for postoperative respiratory failure. These two dogs were therefore sedated only using 20 to 40 micrograms per kilogram body weight oxymorphone administered intramuscularly. The six remaining dogs were anesthetized initially with sodium thiopental (15 to 30 milligrams per kilogram body weight) administered intravenously. The dogs were intubated and maintained under general anesthesia using 0.5 to 2.5% (v/v) inhalational halothane throughout the procedure.
Recording electrodes were implanted for the study of diaphragm and upper airway dilator muscle activity. Electrodes were fashioned from 0.7 millimeter multi-stranded Teflon-coated stainless steel wire. The insulation was stripped from 5 to 8 millimeters at the proximal tip. The proximal tip of each electrode was implanted transcutaneously into the relevant musculature using methods described by Basmajian et al. (1962, J. Appl. Physiol. 17:839).
Five diaphragm electromyographic (DIA EMG) electrodes were implanted in the costal musculature of the right hemidiaphragm 7 to 9 centimeters lateral to the xyphoid process. Three other electrodes were embedded into the right sternohyoid (SH) muscle and, three more were embedded into the right geniohyoid (GH) muscle. Both SH and GH muscles are readily palpable in the English bulldog.
Two ground electrodes were embedded transcutaneously contacting both the occipital skull and dorsal neck musculature. Distal tips of all electrodes were soldered onto a 25-pin Winchester-type connector. Electrodes and the connector were secured to each dog with elastic adhesive dressings over the torso and neck.
All studies were conducted using an unrestrained dog, either housed within a well-ventilated, electronically shielded, clear Plexiglass™ recording chamber or seated atop a table in the recording room. In either case, an investigator remained with the dog throughout the study to observe the dog's head and neck movements and to document the behavioral state of the dog. EMG signals were band-pass filtered at 50 to 2,000 Hertz. DIA EMG signals were passed through an analog EKG blanker (CWE EKG blanker; CWE, Ardmore, Pa.) and then through a third-order Paynter filter (CWE MA) having a 100-millisecond time constant to obtain a moving average of the DIA EMG. Signals of the SH and GH EMG were also passed through Paynter filters with the same time constants (100 ms) to obtain moving averages of these signals. Oxyhemoglobin saturation was measured continuously with a Biox IIA oximeter attached to the dog's pinna. Signals for the GH EMG, GH moving average (MA), SH EMG, SH MA, DIA EMG, DIA MA, and oxyhemoglobin saturations were recorded polygraphically (10 millimeters per second) using a chart recorder with high frequency response, i.e., as much as 10 kHz (Gould ES1000; Gould Instruments, Cleveland, Ohio). Signals were also recorded on analog tape using an eight-channel FM tape recorder (A. R. Vetter, Roseburg, Pa.).
The effects of serotonin antagonists on upper airway dilator muscle activity and breathing during wakefulness were assessed. Serotonin antagonists which were administered were methysergide maleate and ritanserin.
Ritanserin is a relatively selective serotonin antagonist at types 1C and 2 serotonin receptors (Devaud et al., 1992, J. Neurochem. 59:1459-1466). Ritanserin was selected for study on the basis that the IC and 2 subtypes of serotonin receptors appear to be involves in serotonin facilitation of hypoglossal motoneurons in vivo (Kugin et al., supra). […]

English bulldogs [2] = experiment: Respiratory timing from DIA moving average signals; type: in vivo, English bulldog; settings: 0.25 mg/kg, mean±SE, six dogs
Text: Respiratory timing variables were obtained from the DIA MA signals, using methods previously described to determine inspiratory time (T1), expiratory time (TE), total time of a respiratory burst (Ttot), and the duty cycle ratio (T1/Ttot) (Hendricks et al., 1987, J. Appl. Physiol. 63:1344-1350; Hendricks et al., 1991, Am Rev. Respir. Dis. 144:1112-1120).

In the case of Cc1nc2sccn2c(=O)c1CCN1CCC(=C(c2ccc(F)cc2)c2ccc(F)cc2)CC1 [ritanserin], the “GH peak amplitude, mean” value (English bulldogs [1]; 0.25 mg/kg i.v.) is reported as 6.42±1.12 arbitrary units, the SH amplitude (English bulldogs [1]; 0.25 mg/kg i.v.) is reported as 10.90±2.99 arbitrary units and the “percent suppression of GH activity” value (English bulldogs [1]; 0.25 mg/kg i.v., quiet waking) is reported as 40.0±6.5%. For the same compound, the “GH peak amplitude, mean” value (English bulldogs [1]; 0.50 mg/kg i.v. cumulative) was 7.23±2.01 arbitrary units, the SH peak amplitude (English bulldogs [1]; 0.50 mg/kg i.v., baseline ritanserin 14.41±3.93, methysergide 5.75±0.18) was 9.08±1.32 arbitrary units and the “GH peak amplitude, mean” value (English bulldogs [1]; 0.75 mg/kg i.v. cumulative) was 7.44±2.48 arbitrary units. For the same compound, the SH amplitude (English bulldogs [1]; 0.75 mg/kg i.v. cumulative) was 7.43±0.55 arbitrary units, the “TI/Ttot (duty cycle ratio)” value (English bulldogs [2]; baseline 0.50±0.02, NS) was 0.52 ± 0.02 and the “TI (inspiratory time)” value (English bulldogs [2]; baseline 1.31±0.20, p 0.02) was 1.03 ± 0.17 s. The “TE (expiratory time)” value (English bulldogs [2]; baseline 1.32±0.20, p 0.04) was 1.00 ± 0.23 s and the “Ttot (total time of a respiratory burst)” value (English bulldogs [2]; baseline 2.60±0.30, p 0.03) was 2.02 ± 0.30 s.
